ChEMBL document CHEMBL3351412, “Design, synthesis and biological evaluation of β-boswellic acid based HDAC inhibitors as inducers of cancer cell death” (Bioorg Med Chem Lett, 2014)

Experiments:
[1] = target: T1, Histone deacetylase (Homo sapiens) (UniProt Q13547+O15379+Q9UBN7+Q92769+Q9UQL6+Q8WUI4+Q9BY41+Q96DB2+P56524+Q9UKV0+Q969S8); assay: Inhibition of HDAC (unknown origin) at 50 uM; type: protein assay
Histone deacetylase = assay: Inhibition of HDAC (unknown origin); type: protein assay, Homo sapiens
A549 = assay: Cytotoxicity against human A549 cells; type: functional, cell-based
[2] = Cytotoxicity against human FR2 cells; type: cell-based
[3] = target: T1, Histone deacetylase (Homo sapiens); assay: Inhibition of HDAC (unknown origin) at 30 uM; type: protein assay
MCF7 = assay: Cytotoxicity against human MCF7 cells; type: functional, cell-based
[4] = Cytotoxicity against human HCT116 cells; type: functional, cell-based; details: HCT-116
[5] = Cytotoxicity against human MIAPaCa2 cells; type: functional, cell-based; details: MIA PaCa-2
[6] = Cytotoxicity against human HL60 cells; type: functional, cell-based; details: HL-60

inhibition [1] [%] | IC50 (Histone deacetylase) [µM] | inhibition [3] [%] | SMILES | IC50 (A549) [µM] | IC50 [2] [µM] | IC50 (MCF7) [µM] | IC50 [4] [µM] | IC50 [5] [µM] | IC50 [6] [µM]
52 | 48 | 31 | C[C@H]1[C@H](C)CC[C@]2(C)CC[C@]3(C)C(=CC(=O)[C@@H]4[C@@]5(C)CC[C@@H](O)[C@](C)(NC(=O)CCCCCCCC(=O)NO)[C@@H]5CC[C@]43C)[C@H]12 | > 20 | > 20 | 11 | 12 | > 20 | > 20
– | – | – | COC(=O)CCCCCCCC(=O)N[C@]1(C)[C@@H]2CC[C@]3(C)[C@H](CC=C4[C@@H]5[C@@H](C)[C@H](C)CC[C@]5(C)CC[C@]43C)[C@@]2(C)CC[C@H]1OC(C)=O | > 20 | > 20 | 17 | > 20 | > 20 | > 20
– | – | – | COC(=O)CCCCC(=O)N[C@]1(C)[C@@H]2CC[C@]3(C)[C@H](CC=C4[C@@H]5[C@@H](C)[C@H](C)CC[C@]5(C)CC[C@]43C)[C@@]2(C)CC[C@H]1OC(C)=O | > 20 | > 20 | 13.8 | > 20 | > 20 | > 20
– | – | – | C[C@H]1[C@H](C)CC[C@]2(C)CC[C@]3(C)C(=CC(=O)[C@@H]4[C@@]5(C)CC[C@@H](O)[C@](C)(NC(=O)CCCCC(=O)O)[C@@H]5CC[C@]43C)[C@H]12 | 19.1 | > 20 | 18 | > 20 | 14.1 | > 20
– | – | – | CC(=O)O[C@@H]1CC[C@]2(C)[C@H]3CC=C4[C@@H]5[C@@H](C)[C@H](C)CC[C@]5(C)CC[C@@]4(C)[C@]3(C)CC[C@H]2[C@@]1(C)N | 13.2 | 13.9 | 6.9 | 8.7 | 7.2 | 10
– | – | – | COC(=O)CCCC(=O)N[C@]1(C)[C@@H]2CC[C@]3(C)[C@H](C(=O)C=C4[C@@H]5[C@@H](C)[C@H](C)CC[C@]5(C)CC[C@]43C)[C@@]2(C)CC[C@H]1OC(C)=O | 7.4 | > 20 | > 20 | > 20 | > 20 | 17.6
– | – | – | C[C@H]1[C@H](C)CC[C@]2(C)CC[C@]3(C)C(=CC[C@@H]4[C@@]5(C)CC[C@@H](O)[C@](C)(NC(=O)CCCCC(=O)NO)[C@@H]5CC[C@]43C)[C@H]12 | > 20 | > 20 | 4.4 | > 20 | 11.8 | > 20
– | – | – | C[C@H]1[C@H](C)CC[C@]2(C)CC[C@]3(C)C(=CC[C@@H]4[C@@]5(C)CC[C@@H](O)[C@](C)(NC(=O)CCCC(=O)O)[C@@H]5CC[C@]43C)[C@H]12 | > 20 | > 20 | 14.3 | > 20 | 11 | 13.4
– | – | – | C[C@H]1[C@H](C)CC[C@]2(C)CC[C@]3(C)C(=CC[C@@H]4[C@@]5(C)CC[C@@H](O)[C@](C)(NC(=O)CCCCC(=O)O)[C@@H]5CC[C@]43C)[C@H]12 | > 20 | > 20 | > 20 | > 20 | > 20 | > 20
– | – | – | CC(=O)O[C@@H]1CC[C@]2(C)[C@H]3C(=O)C=C4[C@@H]5[C@@H](C)[C@H](C)CC[C@]5(C)CC[C@@]4(C)[C@]3(C)CC[C@H]2[C@@]1(C)N | 6 | 7.1 | 14 | 15.3 | 15.1 | 6.1
– | – | – | COC(=O)CCCCCCC(=O)N[C@]1(C)[C@@H]2CC[C@]3(C)[C@H](CC=C4[C@@H]5[C@@H](C)[C@H](C)CC[C@]5(C)CC[C@]43C)[C@@]2(C)CC[C@H]1OC(C)=O | > 20 | > 20 | > 20 | > 20 | > 20 | > 20
– | – | – | C[C@H]1[C@H](C)CC[C@]2(C)CC[C@]3(C)C(=CC(=O)[C@@H]4[C@@]5(C)CC[C@@H](O)[C@](C)(NC(=O)CCCC(=O)O)[C@@H]5CC[C@]43C)[C@H]12 | 6.6 | > 20 | 11.1 | 7.1 | 6 | > 20
– | – | – | COC(=O)CCCCCCCC(=O)N[C@]1(C)[C@@H]2CC[C@]3(C)[C@H](C(=O)C=C4[C@@H]5[C@@H](C)[C@H](C)CC[C@]5(C)CC[C@]43C)[C@@]2(C)CC[C@H]1OC(C)=O | 10 | 17.2 | 2 | 18 | 6.1 | 10
– | – | – | COC(=O)CCCCCCC(=O)N[C@]1(C)[C@@H]2CC[C@]3(C)[C@H](C(=O)C=C4[C@@H]5[C@@H](C)[C@H](C)CC[C@]5(C)CC[C@]43C)[C@@]2(C)CC[C@H]1OC(C)=O | 2 | > 20 | < 0.25 | 15.7 | 8 | > 20
– | – | – | COC(=O)CCCCC(=O)N[C@]1(C)[C@@H]2CC[C@]3(C)[C@H](C(=O)C=C4[C@@H]5[C@@H](C)[C@H](C)CC[C@]5(C)CC[C@]43C)[C@@]2(C)CC[C@H]1OC(C)=O | 15.1 | > 20 | 15.1 | 15.1 | 15.1 | > 20
– | – | – | C[C@H]1[C@H](C)CC[C@]2(C)CC[C@]3(C)C(=CC(=O)[C@@H]4[C@@]5(C)CC[C@@H](O)[C@](C)(NC(=O)CCCCCCC(=O)O)[C@@H]5CC[C@]43C)[C@H]12 | 2.9 | > 20 | > 20 | > 20 | 8.6 | > 20
– | – | – | COC(=O)CCCC(=O)N[C@@]1(C)[C@H](OC(C)=O)CC[C@]2(C)C3CC=C4[C@@H]5[C@@H](C)[C@H](C)CC[C@]5(C)CC[C@@]4(C)[C@]3(C)CC[C@@H]12 (single isomer, unassigned) | > 20 | > 20 | 8.7 | 19 | 11.4 | 17.1
– | – | – | C[C@H]1[C@H](C)CC[C@]2(C)CC[C@]3(C)C(=CC[C@@H]4[C@@]5(C)CC[C@@H](O)[C@](C)(NC(=O)CCCCCCC(=O)O)[C@@H]5CC[C@]43C)[C@H]12 | > 20 | > 20 | > 20 | > 20 | > 20 | > 20
– | – | – | C[C@H]1[C@H](C)CC[C@]2(C)CC[C@]3(C)C(=CC(=O)[C@@H]4[C@@]5(C)CC[C@@H](O)[C@](C)(NC(=O)CCCCCCCC(=O)O)[C@@H]5CC[C@]43C)[C@H]12 | > 20 | 16.6 | 15.1 | > 20 | > 20 | 7.5
– | – | – | C[C@H]1[C@H](C)CC[C@]2(C)CC[C@]3(C)C(=CC[C@@H]4[C@@]5(C)CC[C@@H](O)[C@](C)(NC(=O)CCCCCCCC(=O)O)[C@@H]5CC[C@]43C)[C@H]12 | > 20 | > 20 | 16.5 | > 20 | 15.9 | > 20
